Measurements taken from publication PMC5955414, “PKD1 is a potential biomarker and therapeutic target in triple-negative breast cancer” (Oncotarget, 2018).
Each block holds one compound with its values, some of them ahead of it.

Columns and labels:
PKD3 [1] = target: T1, PKD3 (Homo sapiens, UniProt O94806); design: method as in PMID 20497126, PMID 20442301, PMID 18829454, PMID 21617763, PMID 20444281; conditions: cited from earlier work
T1 sequence (O94806 1-890): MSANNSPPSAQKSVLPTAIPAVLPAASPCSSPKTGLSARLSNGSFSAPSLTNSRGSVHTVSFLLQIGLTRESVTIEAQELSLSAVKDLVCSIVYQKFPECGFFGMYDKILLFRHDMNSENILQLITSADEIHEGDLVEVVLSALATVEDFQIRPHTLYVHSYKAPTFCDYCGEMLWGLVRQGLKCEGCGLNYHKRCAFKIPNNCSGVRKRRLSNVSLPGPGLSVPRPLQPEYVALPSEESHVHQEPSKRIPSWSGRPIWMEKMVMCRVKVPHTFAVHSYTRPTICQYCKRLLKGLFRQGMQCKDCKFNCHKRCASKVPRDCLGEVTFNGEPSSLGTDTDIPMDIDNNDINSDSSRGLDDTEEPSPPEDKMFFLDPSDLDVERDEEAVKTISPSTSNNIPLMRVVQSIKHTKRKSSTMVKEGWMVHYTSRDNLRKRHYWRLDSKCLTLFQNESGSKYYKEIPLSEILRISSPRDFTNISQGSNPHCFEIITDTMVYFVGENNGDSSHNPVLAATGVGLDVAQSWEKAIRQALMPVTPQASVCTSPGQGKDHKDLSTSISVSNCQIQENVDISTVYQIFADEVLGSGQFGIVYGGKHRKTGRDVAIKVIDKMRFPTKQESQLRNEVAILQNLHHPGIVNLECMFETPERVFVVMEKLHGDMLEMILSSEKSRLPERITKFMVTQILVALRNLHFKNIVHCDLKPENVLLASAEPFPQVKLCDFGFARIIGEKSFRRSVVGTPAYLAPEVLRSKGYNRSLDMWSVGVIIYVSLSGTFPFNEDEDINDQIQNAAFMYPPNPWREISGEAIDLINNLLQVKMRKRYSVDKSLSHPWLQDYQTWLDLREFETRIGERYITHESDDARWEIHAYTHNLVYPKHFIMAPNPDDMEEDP

PKCα [2] = target: T2, PKCα (Homo sapiens, UniProt P17252); design: method as in PMID 20497126, PMID 20442301, PMID 18829454, PMID 21617763, PMID 20444281; conditions: cited from earlier work
PKCα [3] = target: T2, PKCα; test: In vitro kinase inhibitory activity, PKCα; type: biochemical; conditions: AB9275: at concentrations inhibiting PKD1
Procedure: (§1) Supplementary Figure 5: Specificity of the AB9275 PKD1 inhibitor. (A) Comparison of in vitro kinase inhibitory activities
(§2) between AB9275 and different PKD1 inhibitors.
(§3) CRT0066101. Other IC50s were obtained from the literature (as indicated). (B) Kinome selectivity profile of the AB9275 compound. The
(§4) CA). AB9275 was screened at 1 μM.

PKCβ [4] = target: T3, PKCβ (Homo sapiens, UniProt P05771); design: method as in PMID 20497126, PMID 20442301, PMID 18829454, PMID 21617763, PMID 20444281; conditions: cited from earlier work
PKCβ [5] = target: T3, PKCβ; test: In vitro kinase inhibitory activity, PKCβ; type: biochemical; conditions: AB9275: at concentrations inhibiting PKD1
Procedure: as §1, §2, §3, §4

[6] = tested on: MCF7 chemoresistant xenografts; design: method as in PMID 26895471; conditions: cited from earlier work
PKD3 [7] = target: T1, PKD3; test: In vitro kinase inhibitory activity, PKD3; type: biochemical; conditions: AB9275: at concentrations inhibiting PKD1; compared with PKD1
Procedure: as §1, §2, §3, §4

T3 sequence (P05771 whole entry, species assumed): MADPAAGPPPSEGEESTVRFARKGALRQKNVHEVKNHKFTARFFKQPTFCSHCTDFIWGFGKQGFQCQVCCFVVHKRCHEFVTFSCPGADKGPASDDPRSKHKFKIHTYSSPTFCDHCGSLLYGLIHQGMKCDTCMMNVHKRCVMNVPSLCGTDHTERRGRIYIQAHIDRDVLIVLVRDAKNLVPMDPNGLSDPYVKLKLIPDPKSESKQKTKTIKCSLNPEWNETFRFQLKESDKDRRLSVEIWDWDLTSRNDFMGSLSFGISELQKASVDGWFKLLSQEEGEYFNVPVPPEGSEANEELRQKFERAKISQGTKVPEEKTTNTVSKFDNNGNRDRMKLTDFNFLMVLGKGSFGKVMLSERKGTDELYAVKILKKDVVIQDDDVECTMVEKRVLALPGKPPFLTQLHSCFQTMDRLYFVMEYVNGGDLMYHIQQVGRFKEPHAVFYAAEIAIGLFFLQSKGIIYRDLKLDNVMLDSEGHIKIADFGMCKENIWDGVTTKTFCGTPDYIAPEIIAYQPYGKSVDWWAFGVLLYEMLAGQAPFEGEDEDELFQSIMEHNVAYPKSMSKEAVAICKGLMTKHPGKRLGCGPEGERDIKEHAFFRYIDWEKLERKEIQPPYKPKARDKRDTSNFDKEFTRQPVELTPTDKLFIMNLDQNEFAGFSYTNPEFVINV

Compound: O=C1NCCCc2c1oc1ccc(O)cc21 [CID755673]
- Inhibition of PKD3 relative to PKD1 (literature) (PKD3 [1]): similarly inhibit PKD1 and PKD3

Compound: CRT5
- Inhibition of PKD3 relative to PKD1 (literature) (PKD3 [1]): similarly inhibit PKD1 and PKD3

- Inhibition of PKCα in vitro (PKCα [3]): strongly inhibited
- Inhibition of PKCβ in vitro (PKCβ [5]): strongly inhibited
Compound: Cn1c2ccccc2c2c3c(c4c5ccccc5n(CCC#N)c4c21)CNC3=O [Gö6976]
- Inhibition of PKCα (literature) (PKCα [2]): also inhibits
- Inhibition of PKCβ (literature) (PKCβ [4]): also inhibits

Compound: CC[C@@H](N)CNc1ccnc(-c2cc(-c3cnn(C)c3)ccc2O)n1.Cl.Cl [CRT0066101]
- Tumor growth of MCF7 chemoresistant xenografts in vivo [6]: able to inhibit tumor growth
- Inhibition of PKD3 in vitro (PKD3 [7]): more potent against PKD3
- Inhibition of PKD3 relative to PKD1 (literature) (PKD3 [1]): similarly inhibit PKD1 and PKD3
